Test system: M. tuberculosis H37Rv growth inhibition
Experiment: M. tuberculosis H37Rv growth inhibitors, H37Rv strain (AID 1626)
Settings: for IC90: measured here: IC90 against H37Rv; for CC50: measured here: Vero cell cytotoxicity

Row | Compound | IC50 [µM] | IC90 [µM] | CC50 [µM]
1 | Nc1nc(CCOc2ccc(F)cc2)cs1 | 22.4 | > 100 | 
2 | C=CCOc1ccc(CN(C)Cc2nc3cc(C(F)(F)F)ccc3c(=O)[nH]2)cc1 | 12.4 | > 100 | 
3 | COc1ccc(C(=O)CSc2nc(-c3ccccn3)nc(C)c2Cl)cc1 | 6.11 | 6.84 | > 40
4 | Cc1cccc(CSc2nnc(CCCCCNC(=O)OC(C)(C)C)o2)c1 | 15.3 | 21.3 | > 40
5 | CCc1ccc(/C=C/C(=O)C2C(=O)c3ccccc3C2=O)cc1 | 1.76 | 2.92 | > 40
6 | O=[N+]([O-])c1ccc(-c2ccc(/C=N/O)o2)cc1 |  | > 100 | 
7 | Cc1ccc(-c2nn(-c3ccccc3)cc2NC(=O)CCl)cc1 | 29.6 | > 100 | 27.1
8 | Cc1ccc(-c2c[n+](CC(=O)Nc3nc(-c4ccccc4)cs3)c3n2CCC3)cc1 | 7.81 | 16.1 | 
9 | O=c1c2ccccc2nc(-c2ccc(Cl)c(Cl)c2)n1O | 43.8 | > 100 | > 40
10 | Cc1nn2c(NCc3ccccn3)cc(C(C)C)nc2c1-c1ccccc1 |  |  | > 40
11 | Cc1ccc(Oc2cc(NC(=O)CCCn3nc([N+](=O)[O-])cc3C)cc([N+](=O)[O-])c2)cc1 | 12.1 | 13.6 | > 40
12 | O=C(Nc1nnc(-c2ccco2)o1)c1cccc2ccccc12 | 2.34 | 6.25 | 39.4
13 | COc1ccc(C(C[N+](=O)[O-])n2nc(C)cc2C)cc1 (stereo unspecified) |  |  | > 40
14 | O=c1oc2ccccc2nc1/C=C(\O)c1ccc(Br)cc1 | 3.56 | > 100 | 
15 | COc1ccc(-c2noc(CCC(=O)Nc3ccc4c(c3)OCCO4)n2)cc1 | 30.7 | > 100 | 
16 | COc1ccc(N2Cc3ccccc3C2)cc1Cl |  | > 100 | 
17 | CCCCCCCCSc1nnc(CSc2nc3nc(C)cc(C)n3n2)o1 | 0.635 | 24.6 | 
18 | CN1CCN(c2ccccc2NC(=O)c2ccc(-c3ccc(Cl)cc3Cl)o2)CC1 | 65.2 | 82.8 | > 40
19 | Nc1ccccc1Nc1cc(-c2ccccc2)[nH]n1 |  | > 100 | 
20 | O=C(CSc1nc2ccccc2o1)Nc1nc(-c2ccccc2)c(-c2ccccc2)s1 | 10.1 | > 100 | > 40
21 | Fc1ccc(C(c2ccc(F)cc2)N2CCN(C/C=C/c3ccccc3)CC2)cc1 | 7.94 | 10.1 | > 40

Row | Compound | IC50 [µM] | IC90 [µM] | CC50 [µM]
22 | CCCCOC(=O)Cn1c(-c2ccccc2)nc2ccccc2c1=O | 7.75 | 18.5 | 
23 | O=C1N=C(N2CCN(c3cccc4ccccc34)CC2)S/C1=C/c1cccs1 |  |  | > 40
24 | O=C(c1ccccc1)N1CCN(c2ccc([N+](=O)[O-])cc2-n2cccc2)CC1 | 4.17 | 7.26 | > 40
25 | Cc1ccc(C(=O)CC(=O)COc2ccc(Cl)cc2)cc1 | 6.66 | > 100 | > 40
26 | CCOC(=O)Cn1nnc(-c2ccc(OCC(C)C)cc2)n1 | 16.6 | > 100 | 
27 | O=C(C[n+]1cc(-c2ccc(Cl)c(Cl)c2)n2c1CCC2)N1c2ccccc2Sc2ccccc21 | 12.2 | 13.9 | 
28 | O=C(NCCCN1CCOCC1)c1ccc([N+](=O)[O-])cc1[N+](=O)[O-] | 6.25 | > 100 | 
29 | COc1cc(OC)c2c(-c3ccccc3)cc(=O)oc2c1C(CCN1CCCCC1)c1ccc(N(C)C)cc1 (stereo unspecified) | 8.78 | 12.1 | 20.4
30 | Cc1ccc(C)c(-c2cc(C(=O)Nc3sc(C)c(C)c3C(N)=O)c3ccccc3n2)c1 |  |  | > 40
31 | O=C(COc1ccc(Cl)cc1Cl)N1CCN(C/C=C/c2ccccc2)CC1 | 17 | 21.6 | > 40
32 | CCN(CC)CCC(c1ccc2c(c1)OCO2)c1c(OC)cc(OC)c2c(-c3ccccc3)cc(=O)oc12 (stereo unspecified) | 13.4 | 21.3 | 16.5
33 | O=C(C[n+]1cnn(CC(=O)c2ccc(Cl)cc2Cl)c1)c1ccc([N+](=O)[O-])cc1 | 20.3 | 36.8 | 
34 | CCCCOC(=O)c1ccc(NC(=O)C2CCCO2)cc1 (stereo unspecified) | 14.2 | > 100 | 
35 | O=C(Nc1nc2ccc(F)cc2s1)c1ccccn1 | < 0.195 | 0.248 | 3.01
36 | N#C/C(=C/c1ccc(-c2ccc(Br)cc2)o1)C(=O)NC1CCCCC1 |  | > 100 | > 40
37 | COc1ccc(N=C2C(=O)Nc3c(C)cccc32)cc1 |  | > 100 | 
38 | COc1cc(-c2ccc3oc(-c4ccsc4)c(C#CC4(O)CCCCC4)c3c2)cc(OC)c1OC | 3.77 | > 100 | > 40
39 | COc1ccc(NC(=O)N2CCN(c3nc(-c4cccc(OC)c4)cs3)CC2)cc1 | 9.47 | > 100 | > 40
40 | CCCn1c(NC(=O)C23CC4CC(CC(O)(C4)C2)C3)nc2ccccc21 | 11.1 | > 100 | > 40
41 | COC(=O)CSc1nnc(-c2ccc(NS(=O)(=O)c3ccccc3)cc2)o1 | 1.9 | 5.72 | 
42 | CCCN(CCC)CC(O)Cn1cc(/C=C/C(=O)c2ccccc2)c2ccccc21 (stereo unspecified) | 1.5 | 1.66 | 20.3

Row | Compound | IC50 [µM] | IC90 [µM] | CC50 [µM]
43 | O=C(Nc1ccc(-c2nc3ccccc3c(=O)o2)cc1)c1ccco1 | < 0.195 | > 100 | 
44 | Nc1ncnc(Oc2cccc3cccnc23)c1[N+](=O)[O-] | 6.19 | 6.94 | 37.1
45 | Cc1ccc(-c2[nH]nc(N)c2N=Nc2ccccc2C)cc1 | 5.45 | 8.36 | > 40
46 | Cc1cc(-c2ccc(/C=N/n3cnnc3)o2)ccc1Cl |  | > 100 | 
47 | c1ccc(-c2nc(N3CCCCCC3)nc(-n3ccnc3)n2)cc1 | 0.253 | 1.9 | 30
48 | Cc1nc2ccc(NC(=O)c3ccc(Br)o3)cc2s1 | 64.2 | > 100 | 
49 | COCCN=C1Sc2nc3ccc(C)cc3cc2CN1Cc1cccs1 | 10.6 | 13.8 | 
50 | COc1ccc(-c2nnc(NC(=O)c3cc(Cl)ccc3Cl)o2)cc1 | 1.2 | > 100 | 38.8
51 | CC(C)(C)C(=O)/C=c1\s/c(=C\c2ccc(-c3ccc([N+](=O)[O-])cc3)o2)c(=O)n1CC(=O)NC(N)=O |  | > 100 | > 40
52 | COc1ccc(NC2(C#N)CCCCC2)cc1 |  | > 100 | 
53 | COc1cccc(-c2nnc(Nc3nc4c(F)cccc4s3)o2)c1 | 1.56 | 51.8 | > 40
54 | Cc1ccc(-n2cc(C(=O)c3ccc(N4CCN(C)CC4)cc3)nn2)cc1Cl | < 0.391 | 4.59 | 12
55 | C[n+]1c2n(c3ccccc31)N=C(c1cc(C(C)(C)C)c(O)c(C(C)(C)C)c1)CS2 | 2.54 | 3.14 | > 40
56 | Cc1cc(C)cc(N=c2c([N+](=O)[O-])nn(-c3cccc(Cl)c3)n2O)c1 | 4.89 | 9.8 | > 40
57 | Cc1ccc(C2CC(C(F)(F)F)n3ncc(C(=O)NCc4ccco4)c3N2)cc1 (stereo unspecified) | < 0.195 | 3.64 | 
58 | CN(C)CCNc1nc2sc3c(c2c(=O)n1CCc1ccccc1)CCCCC3 | 8.57 | 11.1 | 12
59 | Clc1ccc(CNc2nc(CN3CCOCC3)nc3scc(-c4ccccc4)c23)cc1 | 22 | 25 | > 40
60 | CCSc1nnc(NC(=O)c2ccccn2)s1 | 0.315 | 0.466 | 8.14
61 | Oc1ccccc1N1CCN(c2ncnc3sc(-c4ccccc4)cc23)CC1 | 9.21 | 13 | > 40
62 | CCN(CC)CCn1c(NC(=O)c2ccc(C(F)(F)F)cc2)nc2ccccc21 |  |  | > 40
63 | Cc1c2ccncc2c(C)c2c1[nH]c1ccccc12 | 0.465 | 0.667 | 0.793

Row | Compound | IC50 [µM] | IC90 [µM] | CC50 [µM]
64 | O=C(NCCc1ccc(Cl)cc1)c1ccc(CNc2c(N3CCOCC3)c(=O)c2=O)cc1 | 2.85 | 3.19 | 
65 | COc1cccc(CC2(CO)CCCN(Cc3[nH]c4ccc(C)cc4c3C)C2)c1 (stereo unspecified) | 8.49 | 11.2 | > 40
66 | COc1ccc(NS(=O)(=O)c2cc(NC(=O)[C@@H](NC(=O)c3ccccc3)C(C)C)ccc2C)cc1 |  |  | 23.3
67 | COc1cc(CNCc2ccccn2)ccc1OCc1ccc(Cl)c(Cl)c1 | 5.63 | 7.7 | > 40
68 | Cc1ccc(-c2cc(C(=O)Nc3nccs3)c3ccccc3n2)c(C)c1 | 9.6 | 11.9 | > 40
69 | CC(C)Nc1ccc(Nc2ccnc3cc4ccccc4cc23)cc1 | 5.31 | 9.7 | 3.3
70 | CCOc1ccc2nc(SCC(=O)Nc3ccc4c(c3)OCO4)sc2c1 | 25 | > 100 | 
71 | Cc1ccc(NCc2nnc(SCC(=O)OC3CCCCC3)o2)c(C)c1 | 0.332 | 1.59 | 
72 | Cc1ccc(NC(=O)CCSc2nnc(Cc3ccccc3)o2)cc1 | 16.5 | 29.3 | 
73 | O=C(CCl)N(c1ccccc1)c1c[nH]c2ccccc12 | 3.84 | 8.14 | 0.995
74 | N=C(N)c1ccc(OCCCCCOc2ccc(C(=N)N)cc2)cc1 | 1.51 | 1.72 | > 40
75 | Cc1ccc(Nc2cc(C)nc(NCc3ccccc3)n2)cc1 | 6.69 | 9.45 | > 40
76 | Cc1ccccc1-c1nc2cc(N)ccc2o1 | 15.3 | > 100 | 
77 | Cc1sc(-n2c(C)cc(/C=N/n3cnnc3)c2C)c(C#N)c1C |  |  | > 40
78 | COc1cc(-c2cc(C(=O)Nc3nc4ccccc4s3)c3ccccc3n2)cc(OC)c1OC |  | > 100 | > 40
79 | Clc1ccc(COC(Cn2ccnc2)c2ccc(Cl)cc2Cl)c(Cl)c1 (stereo unspecified) | 2.85 | 3.27 | 36.8
80 | C#CCOCCOCCOCCNc1nc(N2CCN(C(=O)[C@H](Cc3cc4ccccc4[nH]3)n3cc([C@@H](N)CC(C)C)nn3)CC2)nc(N2CCN(C(=O)[C@H](Cc3cc4ccccc4[nH]3)n3cc([C@@H](N)CC(C)C)nn3)CC2)n1 | 4.23 | 7.58 | 
81 | Cc1cccc(/C=c2\s/c(=C\C(=O)C(C)(C)C)[nH]c2=O)c1 | 0.465 | 11.6 | 29
